According to patent US8372831B2, “Isoxazoline linked pyrrolo[2,1-c][1,4]benzodiazepine hybrids as potential anticancer agents and the process for preparation thereof” (Council of Scientific & Industrial Research, priority 2008, dated 2013):

How the values were obtained:
Assay type in all cases: cell-based, human
Details in all cases: 48 hrs exposure
HL-60(TB) = test: NCI SRB cytotoxicity, HL-60(TB) (leukemia)
Procedure: (§1) Biological Activity: The in vitro biological activity studies were carried out at the National Cancer Institute, Maryland, USA.
(§2) The C8-linked isoxazoline-PBD hybrids have been tested against sixty human tumour cell lines derived from nine cancer types (leukemia, non-small cell lung cancer, colon cancer, CNS cancer, melanoma, ovarian cancer, renal cancer, prostate cancer and breast cancer) as per NCI protocol. For each compound, dose response curves for individual cell lines have been measured at a minimum of five concentrations at 10 fold dilutions. A protocol of 48 hrs continuous drug exposure has been used, and a sulforhodamine B (SRB) protein assay was used to estimate cell viability or growth. The concentration for 50% cell growth inhibition (GI50), total cell growth inhibition (TGI, 0% growth) and 50% cell death (LC50, […]) compared with the control has been calculated (FIG. 2).
(§3) Compound 5b and 9b have been evaluated for in vitro cytotoxicity in sixty cell lines from nine human cancer types of lung (Hop-62, NCI-H226, NCI-H522), leukemia (K-562, SR), colon (HCT-116, HCT-15, HCC-2998), CNS(SF-539), melanoma (SK-MEL-5, UACC-62, M14), ovarian (IGROV1), renal (A498), prostate (PC3) breast (BT-549, MDA-MB-435, HS578T) origin. The results are expressed as percent of cell growth determined relative to that of untreated control cells (Table 1).

SW-620 = test: NCI SRB cytotoxicity, SW-620 (colon)
Procedure: as §1, §2, §3

A498 = test: NCI SRB cytotoxicity, A498 (renal)
Procedure: as §1, §2, §3

**Q.** Which results are given for `COc1cc(C2=NOC(c3cc(OC)c(OC)c(OC)c3)C2)ccc1OCCCCOc1cc2c(cc1OC)C(=O)N1CCC[C@H]1C=N2` (stereo partly drawn) [Compound 5b, (11aS)-7-(methyloxy)-8-(4-[(2-(methyloxy)-4-5-[3,4,5-tri(methyloxy)phenyl]-4,5-dihydro-3-isoxazolylphenyl)oxy]butyloxy)-2,3,5,11a-tetrahydro-1H benzo[e]pyrrolo[1,2-a][1,4]diazepin-5-one]?
**A.** GI50 (HL-60(TB)): 180 nM; GI50 (SW-620): 230 nM

**Q.** Which results are given for `COc1ccc(C2CC(c3ccc(OC)c(OC)c3OC)=NO2)cc1OCCCCOc1cc2c(cc1OC)C(=O)N1CCC[C@H]1C=N2` (stereo partly drawn) [Compound 9b, (11aS)-7-(methyloxy)-8-(4-[(2-(methyloxy)-5-3-[2,3,4-tri(methyloxy)phenyl]-4,5-dihydro-5-isoxazolylphenyl)oxy]butyloxy)-2,3,5,11a-tetrahydro-1H-benzo[e]pyrrolo[1,2-a][1,4]diazepin-5-one]?
**A.** GI50 (HL-60(TB)): 1900 nM; GI50 (SW-620): 1550 nM; GI50 (A498): 1720 nM
